This assay relates to rabbit renal cortex brush border membrane vesicles. The assay can be described thus: Uptake of [14C]-labeled glucose into brush border membrane vesicles (transport assay, membrane filtration method). Type of assay: biochemical. To be noted: transport assay on rabbit renal cortex brush border membrane vesicles; 10 μM [14C]D glucose, 30° C., 15 seconds; β-D-gluco form.

This passage reports IC25 results from US7666848B2, “Thiophene glycoside derivatives, processes for the preparation, medicaments comprising these compounds, and the use thereof” (Sanofi-Aventis Deutschland GmbH, priority 2002, dated 2010).

Usually IC25 stands for the point of the concentration-response curve where the effect stands at 25%. Higher therefore signals weaker potency. `COc1ccc(Cc2sccc2OC2OC(CO)C(O)C(O)C2O)cc1` (centres unmarked) [Example 7, 2-Hydroxymethl-6-[2-(4-methoxy-benzyl)-thiophen-3-yloxy]-tetrahydro-pyran-3,4,5-triol] had an IC25 of 1.1 µM. As for `COc1ccc(Cc2sc(C(F)(F)F)cc2OC2OC(CO)C(O)C(O)C2O)cc1` (centres unmarked) [Example 54], the figure is 1.4 µM.
